This assay concerns the target T1, human ΔF508-CFTR (Homo sapiens, UniProt P13569, DEL508-508).
T1 construct: expressed in transfected cells
Nature of the assay: CFTR-YFP High Throughput Assay (YFP halide flux in FRT cells). It is filed as cell-based. The note with it: FRT cells expressing human ΔF508-CFTR and YFP; forskolin stimulated. On the procedure: Assays for Detecting and Measuring the Effect of Compounds on dF508-CFTR Channels CFRT-YFP High Throughput Assay:
The following protocol is designed to selectively screen small molecule compounds for F508del CFTR corrector activities in the HTS YFP flux assay. In this protocol, the cells are incubated with testing compounds for 24 hours, washed with PBS, stimulated with forskolin and a standard potentiator, and read on a 384-well HTS plate reader, such as the Hamamatsu FDDD-6000.
YFP fluorescence intensity is acquired at high speed before and after iodide buffer is injected to the assay cells. Iodide enters the cells via active CFTR channels in the plasma membrane, and quenches the YFP fluorescence. The rate of fluorescence quenching is proportionally related to the total CFTR activities in the cell membrane. dF508-CFTR corrector accelerates YFP quenching by increasing the number of CFTR molecules in the testing cell plasma membrane.
This method was initially developed for bench top plate readers (Galietta et al., 2001), and was adapted to the HTS format (Sui et al. Assay Drug Dev. Technol. 2010).
Fisher Rat Thyroid (FRT) cells stably expressing both human AF508-CFTR and a halide-sensitive yellow fluorescent protein (YFP—H148Q/1152L 25, 22) (Galietta et al., Am. J. Physiol Cell Physiol 281(5), C1734, 2001) were cultured on plastic surface in Coon's modified Ham's F12 medium supplemented with FBS 10%, L-glutamine 2 mM, penicillin 100 U/mL, and streptomycin 100 μg/mL. G418 (0.75-1.0 mg/mL) and zeocin (3.2 ug/mL) were used for selection of FRT cells expressing ΔF508-CFTR and YFP. For primary screening, FRT cells were plated into 384-well black wall, transparent bottom microtiter plates (Costar; Corning Inc.) at a cell density of 20,000-40,000 per well. Test compound was applied to the cells at varying concentrations ranging from […] in either a 2-fold or 3-fold dilution series. Cells were incubated in a cell culture incubator at 37° C. with 5% CO2 for 24-26 h. Assay plates were washed with DPBS media (Thermo, cat# SH30028.02) to remove unbound cells and compound. Stimulation media (25 μL) containing 20 μM Forskolin & 30 μM P3 [6-(Ethyl-phenyl-sulfonyl)-4-oxo-1,4-dihydro-quinoline-3-carboxylic acid 2-methoxy-benzylamide] in Hams F-12 coon's modified media was added to the plate wells and incubated at room temperature for 60-120 min. 25 μL of HEPES-PBS-I buffer (10 mM HEPES, 1 mM MgCl2, 3 mM KCl, 1 mM CaCl2, 150 mM NaI) was then added and fluorescence quench curves (Excitation 500 nm/Emission 540 nm; exposure 136 ms) were immediately recorded on an FDSS-6000 plate reader (Hamamatsu). Quench rates were derived from least squares fitting of the data as described by Sui et al., (2010).
The following protocol is designed to selectively screen small molecule compounds for F508del CFTR potentiator activities in the HTS YFP flux assay. In this protocol, the cells are incubated at 27 C for 24 hours with homogeneously boosted dF508-CFTR expression in the cell membrane by the low temperature, washed with PBS, stimulated with forskolin, and read on a 384-well HTS plate reader, such as the Hamamatsu FDDD-6000.
YFP fluorescence intensity is acquired at high speed before and after iodide buffer is injected to the assay cells. Iodide enters the cells via active CFTR channels in the plasma membrane, and quenches the YFP fluorescence. The rate of fluorescence quenching is proportionally related to the total CFTR activities in the cell membrane. dF508del-CFTR potentiators accelerate YFP quenching by increasing CFTR activities in the testing cell plasma membrane.
Fisher Rat Thyroid (FRT) cells stably expressing both human ΔF508-CFTR and a halide-sensitive yellow fluorescent protein (YFP-H148Q/I152L 25, 22) (Galietta et al., Am. J. Physiol Cell Physiol 281(5), C1734, 2001) were cultured on plastic surface in Coon's modified Ham's F12 medium supplemented with FBS 10%, L-glutamine 2 mM, penicillin 100 U/mL, and streptomycin 100 μg/mL. […]

A value given as a limit tells only on which side of the number the result lay.

T1 sequence (P13569 with tags, fused parts or gaps DEL508-508): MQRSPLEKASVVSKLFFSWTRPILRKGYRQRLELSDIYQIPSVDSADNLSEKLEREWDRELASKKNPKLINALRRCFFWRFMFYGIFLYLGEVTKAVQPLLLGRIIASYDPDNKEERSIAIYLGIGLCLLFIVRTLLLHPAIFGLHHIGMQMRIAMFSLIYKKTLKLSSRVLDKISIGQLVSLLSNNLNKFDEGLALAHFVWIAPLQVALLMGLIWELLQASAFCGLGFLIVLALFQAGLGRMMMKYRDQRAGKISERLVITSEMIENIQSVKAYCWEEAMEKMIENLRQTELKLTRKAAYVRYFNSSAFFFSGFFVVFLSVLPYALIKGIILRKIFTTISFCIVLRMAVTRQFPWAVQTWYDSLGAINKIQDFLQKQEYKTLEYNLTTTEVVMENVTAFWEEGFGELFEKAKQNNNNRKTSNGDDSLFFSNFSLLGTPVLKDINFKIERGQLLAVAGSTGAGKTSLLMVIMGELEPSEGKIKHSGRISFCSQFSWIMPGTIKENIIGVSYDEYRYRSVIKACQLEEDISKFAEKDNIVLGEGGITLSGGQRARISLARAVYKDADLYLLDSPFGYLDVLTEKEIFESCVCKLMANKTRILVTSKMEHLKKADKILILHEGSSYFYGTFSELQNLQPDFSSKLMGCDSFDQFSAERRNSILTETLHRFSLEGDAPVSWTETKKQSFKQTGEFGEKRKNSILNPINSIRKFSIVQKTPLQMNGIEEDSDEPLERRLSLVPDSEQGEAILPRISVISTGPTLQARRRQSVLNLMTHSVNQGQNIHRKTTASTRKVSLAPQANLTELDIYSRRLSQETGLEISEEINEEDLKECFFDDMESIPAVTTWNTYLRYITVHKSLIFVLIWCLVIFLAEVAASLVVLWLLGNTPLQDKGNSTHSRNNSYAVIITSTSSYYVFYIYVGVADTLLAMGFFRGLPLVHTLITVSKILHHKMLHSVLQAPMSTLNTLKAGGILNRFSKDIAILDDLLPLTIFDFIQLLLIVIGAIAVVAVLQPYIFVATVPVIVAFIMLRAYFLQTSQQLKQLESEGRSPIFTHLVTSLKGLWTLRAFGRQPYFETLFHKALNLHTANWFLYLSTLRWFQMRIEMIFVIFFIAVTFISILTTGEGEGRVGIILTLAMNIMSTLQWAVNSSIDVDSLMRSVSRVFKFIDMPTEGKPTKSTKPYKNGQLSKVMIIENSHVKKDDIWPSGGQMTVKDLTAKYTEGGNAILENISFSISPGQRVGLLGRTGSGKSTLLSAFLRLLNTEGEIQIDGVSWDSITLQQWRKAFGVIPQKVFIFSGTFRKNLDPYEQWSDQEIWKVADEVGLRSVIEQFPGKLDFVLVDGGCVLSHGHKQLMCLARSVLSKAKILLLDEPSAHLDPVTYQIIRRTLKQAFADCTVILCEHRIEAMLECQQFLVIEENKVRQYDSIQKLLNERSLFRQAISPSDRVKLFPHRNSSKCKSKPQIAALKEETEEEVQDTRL

For orientation: EC50 means the midpoint of the concentration-response curve. As for `CCc1ccc(N(CC)C(=O)Cn2nc(Cc3cccnc3)c3ccc(OC)cc3c2=O)cc1` [Example 35, N-ethyl-N-(4-ethylphenyl)-2-(7-methoxy-1-oxo-4-(pyridin-3-ylmethyl)phthalazin-2(1H)-yl)acetamide], the EC50 is under 10 µM.

As for `CCc1ccc(N(CC)C(=O)Cn2nc(Cc3cccnc3)c3cc(OC)ccc3c2=O)cc1` [Example 36, N-ethyl-N-(4-ethylphenyl)-2-(6-methoxy-1-oxo-4-(pyridin-3-ylmethyl)phthalazin-2(1H)-yl)acetamide], the EC50 is under 10 µM.

On to `CCc1ccc(N(CC)C(=O)Cn2nc(Cc3cccnc3)c3cccc(F)c3c2=O)cc1` [Example 37, N-ethyl-N-(4-ethylphenyl)-2-(8-fluoro-1-oxo-4-(pyridin-3-ylmethyl)phthalazin-2(1H)-yl)acetamide], for which the EC50 is under 10 µM.

With `CCc1ccc(N(CC)C(=O)Cn2nc(Cc3cccnc3)c3cc(Cl)c(Cl)cc3c2=O)cc1` [Example 38, 2-(6,7-dichloro-1-oxo-4-(pyridin-3-ylmethyl)phthalazin-2(1H)-yl)-N-ethyl-N-(4-ethylphenyl)acetamide], the EC50 is over 20 µM.

Take `CCc1ccc(N(CC)C(=O)Cn2nc(Cc3cccnc3)c3ccc(Cl)cc3c2=O)cc1` [Example 39, 2-(7-chloro-1-oxo-4-(pyridin-3-ylmethyl)phthalazin-2(1H)-yl)-N-ethyl-N-(4-ethylphenyl)acetamide]: the EC50 is under 10 µM.

On to `CCc1ccc(N(CC)C(=O)Cn2nc(Cc3cccnc3)c3cc(Cl)ccc3c2=O)cc1` [Example 40, 2-(6-chloro-1-oxo-4-(pyridin-3-ylmethyl)phthalazin-2(1H)-yl)-N-ethyl-N-(4-ethylphenyl)acetamide], for which the EC50 is under 10 µM.

For the molecule `CCc1ccc(N(CC)C(=O)Cn2nc(Cc3cccnc3)c3ccncc3c2=O)cc1` [Example 41, N-ethyl-N-(4-ethylphenyl)-2-(4-oxo-1-(pyridin-3-ylmethyl)pyrido[3,4-d]pyridazin-3(4H)-yl)acetamide], the EC50 was over 20 µM.

For the molecule `CCc1ccc(N(CC)C(=O)Cn2nc(Cc3cccnc3)c3cnccc3c2=O)cc1` [Example 42, N-ethyl-N-(4-ethylphenyl)-2-(1-oxo-4-(pyridin-3-ylmethyl)pyrido[3,4-d]pyridazin-2(1H)-yl)acetamide], the EC50 is over 20 µM.

Turning to `CCc1ccc(N(CC)C(=O)Cn2nc(Cc3cccnc3)c3ncccc3c2=O)cc1` [Example 43, N-ethyl-N-(4-ethylphenyl)-2-(5-oxo-8-(pyridin-3-ylmethyl)pyrido[2,3-d]pyridazin-6(5H)-yl)acetamide], the EC50 is 10 to 20 µM.

Consider `CCN(C(=O)Cn1nc(Cc2cccnc2)c2cc(OC)c(OC)cc2c1=O)c1ccc2c(c1)OC(F)(F)O2` [Example 44], for which the EC50 is under 10 µM.

`CCN(C(=O)Cn1nc(Cc2cccnc2)c2ccc(C)cc2c1=O)c1ccc2c(c1)OC(F)(F)O2` [Example 45, N-(2,2-difluorobenzo[d][1,3]dioxol-5-yl)-N-ethyl-2-(7-methyl-1-oxo-4-(pyridin-3-ylmethyl)phthalazin-2(1H)-yl)acetamide]: the EC50 was under 10 µM.

`CCN(C(=O)Cn1nc(Cc2cccnc2)c2cc(C)ccc2c1=O)c1ccc2c(c1)OC(F)(F)O2` [Example 46, N-(2,2-difluorobenzo[d][1,3]dioxol-5-yl)-N-ethyl-2-(6-methyl-1-oxo-4-(pyridin-3-ylmethyl)phthalazin-2(1H)-yl)acetamide]: the EC50 is under 10 µM.

Regarding `CCN(C(=O)Cn1nc(Cc2cccnc2)c2cccc(C)c2c1=O)c1ccc2c(c1)OC(F)(F)O2` [Example 47, N-(2,2-difluorobenzo[d][1,3]dioxol-5-yl)-N-ethyl-2-(8-methyl-1-oxo-4-(pyridin-3-ylmethyl)phthalazin-2(1H)-yl)acetamide], the EC50 is under 10 µM.

For the molecule `CCN(C(=O)Cn1nc(Cc2cccnc2)c2c(C)cccc2c1=O)c1ccc2c(c1)OC(F)(F)O2` [Example 48, N-(2,2-difluorobenzo[d][1,3]dioxol-5-yl)-N-ethyl-2-(5-methyl-1-oxo-4-(pyridin-3-ylmethyl)phthalazin-2(1H)-yl)acetamide], the EC50 is under 10 µM.

Regarding `CCN(C(=O)Cn1nc(Cc2cccnc2)c2cc(C(C)(C)C)ccc2c1=O)c1ccc2c(c1)OC(F)(F)O2` [Example 49, 2-(6-(tert-butyl)-1-oxo-4-(pyridin-3-ylmethyl)phthalazin-2(1H)-yl)-N-(2,2-difluorobenzo[d][1,3]dioxol-5-yl)-N-ethylacetamide], the EC50 was under 10 µM.

For the molecule `CCN(C(=O)Cn1nc(Cc2cccnc2)c2ccc(C(C)(C)C)cc2c1=O)c1ccc2c(c1)OC(F)(F)O2` [Example 50, 2-(7-(tert-butyl)-1-oxo-4-(pyridin-3-ylmethyl)phthalazin-2(1H)-yl)-N-(2,2-difluorobenzo[d][1,3]dioxol-5-yl)-N-ethylacetamide], the EC50 is under 10 µM.

As to `CCN(C(=O)Cn1nc(Cc2cccnc2)c2cc(OC)ccc2c1=O)c1ccc2c(c1)OC(F)(F)O2` [Example 51, N-(2,2-difluorobenzo[d][1,3]dioxol-5-yl)-N-ethyl-2-(6-methoxy-1-oxo-4-(pyridin-3-ylmethyl)phthalazin-2(1H)-yl)acetamide], the EC50 was under 10 µM.

As to `CCN(C(=O)Cn1nc(Cc2cccnc2)c2ccc(OC)cc2c1=O)c1ccc2c(c1)OC(F)(F)O2` [Example 52, N-(2,2-difluorobenzo[d][1,3]dioxol-5-yl)-N-ethyl-2-(7-methoxy-1-oxo-4-(pyridin-3-ylmethyl)phthalazin-2(1H)-yl)acetamide], the EC50 was under 10 µM.

As for `CCN(C(=O)Cn1nc(Cc2cccnc2)c2cc(Cl)ccc2c1=O)c1ccc2c(c1)OC(F)(F)O2` [Example 53, 2-(6-chloro-1-oxo-4-(pyridin-3-ylmethyl)phthalazin-2(1H)-yl)-N-(2,2-difluorobenzo[d][1,3]dioxol-5-yl)-N-ethylacetamide], the EC50 was under 10 µM.

Turning to `CCN(C(=O)Cn1nc(Cc2cccnc2)c2ccc(Cl)cc2c1=O)c1ccc2c(c1)OC(F)(F)O2` [Example 54, 2-(7-chloro-1-oxo-4-(pyridin-3-ylmethyl)phthalazin-2(1H)-yl)-N-(2,2-difluorobenzo[d][1,3]dioxol-5-yl)-N-ethylacetamide], the EC50 was under 10 µM.

`CCN(C(=O)Cn1nc(Cc2cccnc2)c2cccc(OC)c2c1=O)c1ccc2c(c1)OC(F)(F)O2` [Example 55, N-(2,2-difluorobenzo[d][1,3]dioxol-5-yl)-N-ethyl-2-(8-methoxy-1-oxo-4-(pyridin-3-ylmethyl)phthalazin-2(1H)-yl)acetamide]: the EC50 is under 10 µM.

Regarding `CCN(C(=O)Cn1nc(Cc2cccnc2)c2c(OC)cccc2c1=O)c1ccc2c(c1)OC(F)(F)O2` [Example 56, N-(2,2-difluorobenzo[d][1,3]dioxol-5-yl)-N-ethyl-2-(5-methoxy-1-oxo-4-(pyridin-3-ylmethyl)phthalazin-2(1H)-yl)acetamide], the EC50 is under 10 µM.

Turning to `CCOc1cccc2c(Cc3cccnc3)nn(CC(=O)N(CC)c3ccc4c(c3)OC(F)(F)O4)c(=O)c12` [Example 57, N-(2,2-difluorobenzo[d][1,3]dioxol-5-yl)-N-ethyl-2-(8-ethoxy-1-oxo-4-(pyridin-3-ylmethyl)phthalazin-2(1H)-yl)acetamide], the EC50 was under 10 µM.

As for `CCOc1cccc2c(=O)n(CC(=O)N(CC)c3ccc4c(c3)OC(F)(F)O4)nc(Cc3cccnc3)c12` [Example 58, N-(2,2-difluorobenzo[d][1,3]dioxol-5-yl)-N-ethyl-2-(5-ethoxy-1-oxo-4-(pyridin-3-ylmethyl)phthalazin-2(1H)-yl)acetamide], the EC50 fell in the range of 10 to 20 µM.
